Results as given in patent publication US20240309018A1, “THIAZOLE-LACTAM-SPIROHETEROCYCLIC COMPOUNDS AND APPLICATIONS THEREOF” (D3 BIO (WUXI) CO., LTD, priority 2021, published 2024).

Target: hERG potassium channel (Homo sapiens (Human), UniProt Q12809)
Experiment: hERG assay (automated patch-clamp, CHO-hERG cells)
Type: cell-based
Settings: Qpatch, highest assayed concentration 40 μM
Procedure: A fully automated patch-clamp method was used to assay the effect of the compound on hERG potassium channel (human Ether-a-go-go Related Gene potassium channel) current.
CHO-hERG cells were cultured in a 175 cm^2 culture flask. When cells grew to a density of 60˜80%, the culture medium was removed. Cells were washed once with 7 mL of PBS (Phosphate Buffered Saline), and then 3 mL of Detachin was added for digestion. After the digestion was completed, 7 mL of culture medium was added for neutralization, and then the mixture was centrifuged. The supernatant was aspirated, and then 5 mL of culture medium was added to resuspend the cells and ensure that the cell density was 2˜5×10^6/mL.
Extracellular solution formulation (mM): 140 NaCl, 5 KCl, 1 CaCl2), 1.25 MgCl2, 10 HEPES and 10 Glucose: the formulation was adjusted to pH of 7.4 with NaOH. […]
The single-cell high-impedance sealing and whole-cell pattern formation processes were all automatically performed by a Qpatch instrument. […] This voltage stimulation was applied every 15 seconds, and recorded for 2 minutes. The extracellular solution was then given, and recorded for 5 minutes. […]
Assay data were analyzed by GraphPad Prism 5.0 software. […]
The inhibitory effect of Cisapride with multiple concentrations on the hERG channel was measured as a positive control.

Chain of hERG potassium channel (Q12809 whole entry): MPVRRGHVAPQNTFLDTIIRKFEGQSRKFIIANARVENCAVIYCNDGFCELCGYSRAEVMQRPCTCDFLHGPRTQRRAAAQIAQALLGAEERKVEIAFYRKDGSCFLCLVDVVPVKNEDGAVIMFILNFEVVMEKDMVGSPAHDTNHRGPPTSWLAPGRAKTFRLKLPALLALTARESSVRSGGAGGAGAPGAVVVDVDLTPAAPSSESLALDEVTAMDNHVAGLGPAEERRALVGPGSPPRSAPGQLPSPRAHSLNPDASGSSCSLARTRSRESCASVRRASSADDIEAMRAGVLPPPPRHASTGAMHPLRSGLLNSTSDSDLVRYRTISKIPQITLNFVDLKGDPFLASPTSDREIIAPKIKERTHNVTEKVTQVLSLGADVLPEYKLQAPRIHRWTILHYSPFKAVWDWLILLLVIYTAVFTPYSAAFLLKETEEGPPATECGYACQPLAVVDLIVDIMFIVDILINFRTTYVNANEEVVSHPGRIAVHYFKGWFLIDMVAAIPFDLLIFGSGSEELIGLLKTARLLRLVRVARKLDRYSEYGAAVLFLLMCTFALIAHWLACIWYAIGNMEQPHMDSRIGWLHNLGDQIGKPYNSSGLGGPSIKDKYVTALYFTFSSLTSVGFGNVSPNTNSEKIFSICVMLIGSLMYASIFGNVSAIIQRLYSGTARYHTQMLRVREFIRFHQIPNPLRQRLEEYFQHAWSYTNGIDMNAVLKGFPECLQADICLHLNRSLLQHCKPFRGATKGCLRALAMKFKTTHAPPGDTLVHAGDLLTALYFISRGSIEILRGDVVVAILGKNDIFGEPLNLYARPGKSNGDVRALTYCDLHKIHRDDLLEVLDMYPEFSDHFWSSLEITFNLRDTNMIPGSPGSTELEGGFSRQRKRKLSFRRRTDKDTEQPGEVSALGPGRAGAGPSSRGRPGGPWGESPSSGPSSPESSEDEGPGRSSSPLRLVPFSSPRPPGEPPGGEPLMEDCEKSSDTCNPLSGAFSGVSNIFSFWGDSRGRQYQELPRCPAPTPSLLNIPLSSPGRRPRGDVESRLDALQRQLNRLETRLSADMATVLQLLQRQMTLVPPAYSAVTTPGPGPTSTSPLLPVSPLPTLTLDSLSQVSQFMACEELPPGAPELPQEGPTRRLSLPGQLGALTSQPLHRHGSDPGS

For `Cc1cccc(CN2C(=O)c3nc(-c4nc(Nc5ccnn5C)ncc4C)sc3C23COC3)n1` [WX001], the IC50 was greater than 40 µM.
